Experimental data taken from patent publication US11466020B2, “Compounds and compositions for inhibition and elimination of Zika infection and uses for same” (Cornell University, priority 2017, dated 2022).
Counter-ions that a name gives are not always drawn.

Tests used:
[1] = test system: ZIKV (MR766 strain); assay: qRT-PCR of total ZIKV vRNA in supernatant of hNPC cultures; assay type: cell-based, Zika virus; conditions: 72 h after infection
Protocol: (§1) (A) Scheme of high content chemical screen. (B) Chemical structure of hit compounds. (C) Inhibitory curve and IC50 of HH or AQ on hNPCs (n=6). (D-H) Immunocytochemistry analysis (D), the quantification of the infection rate (E), the quantification of proliferation rate (F), the quantification of cell apoptosis rate (G) and the normalized cell viability (H) of hNPCs at 72 h after ZIKV (MR 766 strain) infection with or without drug treatment. Scale bars, 100 μm. The ZIKV infection rate is defined as the percentage of ZIKV E^+ cells. The proliferation rate is defined as the percentages of Ki67^+ cells. The cell apoptosis rate was defined as the percentage of cleaved-Caspase 3/CAS3^+ cells. The normalized cell viability was calculated by dividing the total cell number of each condition by the total cell number under mock infection conditions. (n=6). […] (K) Quantification of ZIKV infectious particles produced by ZIKV-infected hNPCs with or without compound treatment by the Vero cell reinfection assay. […] (M and N) Immunocytochemistry analysis (M) and quantification of the infection rate (N) of hNPCs at 72 h after ZIKV (PRVABC59 strain) infection with or without drug treatment (n=6). Scale bars, 100 μm. p values were calculated by one-way repeated measures ANOVA with a Bonferroni test for multiple comparisons. *p<0.05, **p<0.01 and ***p<0.001. […]

[2] = test system: ZIKV (MR766 strain); assay: Vero cell re-infection assay (infectious ZIKV in hNPC supernatant); assay type: cell-based, Zika virus; conditions: supernatant of hNPC cultures, 72 h after infection
Protocol: as §1

Row | SMILES | production of ZIKV viral RNA (vRNA), qRT-PCR [1] | production of infectious ZIKV, Vero cell re-infection assay [2]
1 | CCN(CC)Cc1cc(Nc2ccnc3cc(Cl)ccc23)ccc1O [AQ, amodiaquine dihydrochloride dihydrate] | significantly suppressed | significantly suppressed
2 | CN1CCC2=C[C@H](O)[C@H]3OC(=O)c4cc5c(cc4[C@H]3[C@@H]21)OCO5 [HH, hippeastrine hydrobromide] | significantly suppressed | significantly suppressed
